Experimental findings from US10189796B2, “[4-(1,3,3-trimethyl-2-oxo-3,4-dihydro-1H-quinoxalin-7-yl)phenoxy]ethyloxy compound or salt thereof” (SANTEN PHARMACEUTICAL CO., LTD., priority 2015, dated 2019) are described below.

Structures are written as SMILES. Bounds are passed on as bounds.

The test system of experiment [1] is IL-6 production in human corneal epithelium cell line (HCE-T). The experiment can be described thus: IL-6 production inhibitory action evaluation test (LPS stimulation, HTRF). The format is cell-based. The following applies: 4 hours; for Emax: 100 μM test compound solution 10 μL/well, DEX treated group = 100, read-out: IL-6 production inhibitory ratio (% DEX); for IC50: IL-6 production inhibition. The procedure: To evaluate the action of the present compounds as a GR agonist, IL-6 production inhibitory action in human corneal epithelial cell line after LPS stimulation was examined The IL-6 production was measured by using the HTRF method (Cat No. 62IL6PEB manufactured by Cisbio Bioassays, Inc.) according to the attached protocol. The specific method is described below.
LPS solution: After dissolving LPS in PBS(−), the resulting solution was diluted with a culture solution, whereby an LPS solution with a 1 μg/mL concentration was prepared.
After dissolving the test compound in dimethylsulfoxide, the solution was diluted with a 10% FBS-DMEM/Ham's F12 medium, whereby a 100 μM of the test compound solution was prepared. […] In addition, DEX was similarly dissolved, whereby a 100 μM concentration of the DEX solution was prepared, and an IL-6 production inhibitory ratio of DEX was measured, and used for calculation of Efficacy (% DEX).
Used cells: human corneal epithelium cell line (HCE-T) (RIKEN, Institute of Physical and Chemical Research)
The cells continued to subculture according to this method were used for the test. (Test Method and Measurement Method) • 1) The subcultured HCE-T was recovered and the cells were seeded at 2.0×10^4 cells/0.1 mL/well in a 96-well flat bottom culture plate. • 2) After culturing overnight, medium the medium was removed and each 80 μL/well of 10%
FBS-DMEM/Ham's F12 medium was added. • 3) Test compound solution was added with each 10 μL/well. • 4) LPS solution was added with each 10 μL/well. • 5) The sample to which 1% dimethylsulfoxide-containing 10% FBS-DMEM/Ham's F12 medium was added with each 10 μL/well in place of each test compound solution, and 10% FBS-DMEM/Ham's F12 medium was added in place of the LPS solution was made a negative control. • 6) The sample in which 1% dimethylsulfoxide-containing 10% FBS-DMEM/Ham's F12 medium was added with each 10 μL/well in place of each test compound solution was made a positive control. • 7) After completion of 4 hours cultivation, the supernatant was recovered and the amount of IL-6 released in the supernatant was measured by using an HTRF human IL-6 Kit. • 8) The IL-6 production inhibitory ratio was calculated according to the following calculation formula. (Calculation of IL-6 Production Inhibitory Ratio)
The IL-6 production inhibitory ratio (%) was calculated by the following formula. IL-6 production inhibitory ratio (%)=100×{1−(IL-6 produced amount of each test compound solution−average value of IL-6 produced amount of negative control group)/(average value of IL-6 produced amount of positive control group−average value of IL-6 produced amount of negative control group)}(%)
Further, the IL-6 production inhibitory ratio (Efficacy (% DEX)) when the DEX treated group was made 100 was calculated. Efficacy (% DEX)=100×{(average value of IL-6 production inhibitory ratio of each test compound solution)/(average value of IL-6 production inhibitory ratio of DEX treated group)}(%)
In addition, IC50 was calculated according to a conventional method. IDBS XLfit4 was used for the calculation.
Background: In TR-FRET formats the signal depends on donor and acceptor labels being close together.

The test system of experiment [2] is IL-4 production in normal human CD4+T cell. The experiment can be described thus: IL-4 production inhibitory action evaluation test (anti-CD3/CD28 antibody stimulation, ELISA). The following applies: anti-CD3/CD28, 24 hours, read-out: IL-4 production inhibitory ratio (% of 1 μM). The class given is cell-based. The procedure: In order to evaluate an action of the present compound as a GR agonist, IL-2 and IL-4 production inhibitory actions in a normal human CD4^+T cell after stimulation by an anti-CD3/CD28 antibody were investigated. For the measurement of the IL-2 and IL-4 production amounts, the ELISA method (manufactured by R&D Systems, Cat No. D2050, HS400) was used, and a procedure was carried out according to the protocol attached thereto. Hereinafter, the specific method will be described.
Dynabeads (Registered Trademark) Human T-Activator CD3/CD28 (4×10^7 beads/mL) (Dynabeads) was used, and prepared according to the protocol attached thereto.
After the test compound was dissolved in dimethylsulfoxide, the solution was diluted with an RPMI medium to prepare 400 μM of a test compound solution. The solution was diluted with a 4% dimethylsulfoxide-containing RPMI medium to prepare 40 μM of a test compound solution.
Used cells: normal peripheral blood human CD4^+T cell (human CD4^+T cell) (Lonza)
• 1) Frozen human CD4^+T cells were thawed in a warm water bath at 37° C., and added to an RPMI medium (RPMI 1640 containing 10% FBS, 100 U/mL of Penicillin, and […] of Streptomycin). • 2) The above suspension was recovered and centrifuged at 900 rpm for 10 minutes to give a cell sediment. • 3) The cell sediment was suspended in an RPMI medium and the operation of 2) was carried out. • 4) The cell sediment was adjusted to 4×10^5 cells/mL with an RPMI medium. • 5) The above suspension was cultured in a CO2 incubator (temperature: 37° C., CO2 concentration: 5%) for 1 hour or longer. (Test Method and Measurement Method) • 1) The cultured human CD4^+T cells were recovered and the cells were seeded in 96-well flat bottom culture plates at each 8.0×10^4 cells/0.2 mL/well. • 2) The test compound solution was added with each 5 μL/well. • 3) The prepared Dynabeads were added with each 2 μL/well. • 4) The sample in which 4% dimethylsulfoxide-containing RPMI medium was added with each 5 μL/well in place of each test compound solution, and the RPMI medium was added with each 2 μL/well in place of the Dynabeads was made a negative control. • 5) The sample in which 4% dimethylsulfoxide-containing RPMI medium was added with each 5 μL/well in place of each test compound solution was made a positive control. • 6) After completion of 24 hours cultivation, the supernatant was recovered and the amounts of IL-2 and IL-4 released in the supernatant was measured by using an ELISA Kit. • 7) The IL-2 and IL-4 production inhibitory ratios were calculated according to the following calculation formula. (Calculation of IL-2 and IL-4 Production Inhibitory Ratios)
The IL-2 and IL-4 production inhibitory ratios (%) were calculated by the following formula, respectively. IL-2 or IL-4 production inhibitory ratio (%)=100×{1−(IL-2 or IL-4 production amounts of each test compound solution−average value of IL-2 or IL-4 production amount of negative control group)/(average value of IL-2 or IL-4 production amount of positive control group−average value of IL-2 or IL-4 production amount of negative control group)}(%) (Test Result and Consideration)
(In an ELISA, binding on a coated surface is turned into a signal by an enzyme label.)

As for `COc1cc(OC[C@@H](O)CCO)ccc1-c1ccc2c(c1COc1cc(F)ccc1C)N(C)C(=O)C(C)(C)N2` [Compound 2-1, (S)-7-[4-(2,4-dihydroxybutyl)oxy-2-methoxyphenyl]-8-(5-fluoro-2-methyl-phenoxymethyl)-1,3,3-trimethyl-3,4-dihydro-1H-quinoxalin-2-one], the Emax in experiment [1] is 82%. The inhibition at 1 µM in experiment [2] turned out to be 83%.

For `COc1ccc(CO)cc1-c1ccc2c(c1COc1cc(F)ccc1C)N(C)C(=O)C(C)(C)N2` [Control compound B, 8-(5-fluoro-2-methylphenoxymethyl)-7-(5-hydroxymethyl-2-methoxyphenyl)-1,3,3-trimethyl-3,4-dihydro-1H-quinoxalin-2-one, reference compound], the Emax in experiment [1] was found to be 62%. In experiment [2], the inhibition at 1 µM was 51%.

The term IC50 denotes the midpoint of a concentration-inhibition curve. Low values mean greater potency in that assay, high ones weaker potency in that assay. As for `COc1ccc(O)cc1-c1ccc2c(c1COc1cc(F)ccc1C)N(C)C(=O)C(C)(C)N2` [Control compound C, 8-(5-fluoro-2-methylphenoxymethyl)-7-(5-hydroxy-2-methoxyphenyl)-1,3,3-trimethyl-3,4-dihydro-1H-quinoxalin-2-one], in experiment [1], the Emax was 71% and the IC50 stood at 93 nM. Also, in experiment [2], the inhibition at 1 µM stood at 56%.

On to `CCCC(=O)Oc1ccc(-c2ccc3c(c2COc2cc(F)ccc2C)N(C)C(=O)C(C)(C)N3)c(OC)c1` [Control compound D, 7-(4-butyryloxy-2-methoxyphenyl)-8-(5-fluoro-2-methylphenoxymethyl)-1,3,3-trimethyl-3,4-dihydro-1H-quinoxalin-2-one, reference compound], for which, in experiment [1], the Emax was determined as 69%. Moreover, in experiment [2], the inhibition at 1 µM was 46%.

On to `COc1cc(OC[C@H](C)O)ccc1-c1ccc2c(c1COc1cc(F)ccc1C)N(C)C(=O)C(C)(C)N2` [Compound 1-1, (S)-8-(5-fluoro-2-methylphenoxymethyl)-7-[4-(2-hydroxypropyl)oxy-2-methoxy-phenyl]-1,3,3-trimethyl-3,4-dihydro-1H-quinoxalin-2-one], for which the Emax in experiment [1] stood at 86%. For the same molecule, in experiment [2], the inhibition at 1 µM came out at 91%.

Regarding `COc1cc(OC[C@H](C)OC(=O)CN(C)C)ccc1-c1ccc2c(c1COc1cc(F)ccc1C)N(C)C(=O)C(C)(C)N2` [Compound 11-1, (S)-7-[4-[2-(N,N-dimethylaminoacetoxy)propyl]oxy-2-methoxyphenyl]-8-(5-fluoro-2-methylphenoxymethyl)-1,3,3-trimethyl-3,4-dihydro-1H-quinoxalin-2-one], the inhibition at 1 µM in experiment [2] stood at 87%.

`COc1cc(OC[C@@H](O)CC#N)ccc1-c1ccc2c(c1COc1cc(F)ccc1C)N(C)C(=O)C(C)(C)N2` [Compound 5-2, (S)-7-[4-(3-cyano-2-hydroxypropyl)oxy-2-methoxyphenyl]-8-(5-fluoro-2-methyl-phenoxymethyl)-1,3,3-trimethyl-3,4-dihydro-1H-quinoxalin-2-one]: in experiment [1], the Emax is greater than 99% and the IC50 was 13 nM.

For `COc1ccc(-c2ccc3c(c2COc2cc(F)ccc2C)N(C)C(=O)C(C)(C)N3)c(OC)c1` [Control compound E, 7-(2,4-dimethoxyphenyl)-8-(5-fluoro-2-methyl-phenoxymethyl)-1,3,3-trimethyl-3,4-dihydro-1H-quinoxalin-2-one, reference compound], in experiment [1], the Emax was found to be 10%. Further, the inhibition at 1 µM in experiment [2] stood at 32%.

As to `COCOc1ccc(-c2ccc3c(c2COc2cc(F)ccc2C)N(C)C(=O)C(C)(C)N3)c(OC)c1` [Control compound F, 8-(5-fluoro-2-methylphenoxymethyl)-7-(2-methoxy-4-methoxymethoxyphenyl)-1,3,3-trimethyl-3,4-dihydro-1H-quinoxalin-2-one, reference compound], in experiment [1], the Emax was 62%. The inhibition at 1 µM in experiment [2] was found to be 29%.
